Source: ChEMBL document CHEMBL1201862, “PubChem BioAssay data set” (2004)
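Assay format: 96-well plates, 48-hour exposure. GI50: concentration for 50% inhibition of growth.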 Calls of active or inactive are those of the source. No stated cut-off is given here; in the data, active = GI50 up to about 1.1 µM and inactive = higher.

Key:
Experiment in all cases: DTP human tumour cell line panel, 48 h
SK-OV-3 = test system: SK-OV-3
CAKI-1 = test system: CAKI-1
SK-MEL-28 = test system: SK-MEL-28
SF-268 = test system: SF-268
LOX IMVI = test system: LOX IMVI
SN12C = test system: SN12C
UO-31 = test system: UO-31
HOP-92 = test system: HOP-92
NCI-H23 = test system: NCI-H23
Hs-578T = test system: Hs-578T
HCT-15 = test system: HCT-15
NCI-H522 = test system: NCI-H522
SK-MEL-2 = test system: SK-MEL-2
DU-145 = test system: DU-145
SW-620 = test system: SW-620
RXF 393 = test system: RXF 393
IGROV-1 = test system: IGROV-1
CCRF-CEM = test system: CCRF-CEM
SNB-75 = test system: SNB-75

Row | Structure (SMILES) | GI50 (SK-OV-3) | GI50 (CAKI-1) | GI50 (SK-MEL-28) | GI50 (SF-268) | GI50 (LOX IMVI) | GI50 (SN12C) | GI50 (UO-31) | GI50 (HOP-92) | GI50 (NCI-H23) | GI50 (Hs-578T) | GI50 (HCT-15) | GI50 (NCI-H522) | GI50 (SK-MEL-2) | GI50 (DU-145) | GI50 (SW-620) | GI50 (RXF 393) | GI50 (IGROV-1) | GI50 (CCRF-CEM) | GI50 (SNB-75)
1 | COc1cc(C(=O)Nc2nnc(S(N)(=O)=O)s2)cc(OC)c1OC | > 100 µM (inactive) | > 100 µM (inactive) | > 100 µM (inactive) | > 100 µM (inactive) | > 100 µM (inactive) | > 100 µM (inactive) | > 100 µM (inactive) | 65.6 µM (inactive) | > 100 µM (inactive) | > 100 µM (inactive) | > 100 µM | > 100 µM (inactive) | > 100 µM (inactive) | > 100 µM (inactive) | > 100 µM (inactive) | > 100 µM (inactive) |  |  | 
2 | N#Cc1ccc(Oc2nc3ccccc3nc2-c2ccccc2)cc1 | > 100 µM (inactive) | > 100 µM (inactive) | > 100 µM (inactive) | > 100 µM (inactive) | > 100 µM (inactive) | > 100 µM (inactive) | > 100 µM (inactive) | > 100 µM (inactive) | > 100 µM (inactive) | > 100 µM (inactive) | > 100 µM | > 100 µM (inactive) | > 100 µM (inactive) | > 100 µM (inactive) | > 100 µM (inactive) | > 100 µM (inactive) | > 100 µM (inactive) | > 100 µM (inactive) | 
3 | COc1ccc(C2CC(c3ccccc3)=Nc3c(-c4ccccc4)nnn32)cc1 (centres undefined) | > 100 µM (inactive) | 98.4 µM (inactive) |  | > 100 µM (inactive) | > 100 µM (inactive) | > 100 µM (inactive) | > 100 µM (inactive) |  | > 100 µM (inactive) | 51.2 µM (inactive) | 9.06 µM | 8.22 µM (inactive) | 44.4 µM (inactive) | > 100 µM (inactive) | > 100 µM (inactive) |  | > 100 µM (inactive) | > 100 µM (inactive) | 
4 | Cc1[nH]n(-c2ccccc2)c(=O)c1C(N(CCc1ccccc1)C1=NCC(C)S1)(C(F)(F)F)C(F)(F)F (centres undefined) | 25.4 µM (inactive) | 13.5 µM (inactive) | 16.4 µM (inactive) | 21.4 µM (inactive) | 0.164 µM (active) | 17.8 µM (inactive) | 10.4 µM (inactive) | 0.352 µM (active) | 5.16 µM (inactive) | 20.5 µM (inactive) | 13.3 µM | 4.35 µM (inactive) | 8.51 µM (inactive) | 27.2 µM (inactive) | 18.1 µM (inactive) |  |  | 19.3 µM (inactive) | 16.5 µM (inactive)
5 | O=C(NC(C(F)(F)F)(C(F)(F)F)P(=O)(c1ccccc1)c1ccccc1)C(C(F)(F)F)C(F)(F)F | > 100 µM (inactive) | 0.0131 µM (active) | 32.9 µM (inactive) | 28.9 µM (inactive) | 23.2 µM (inactive) | 27.9 µM (inactive) |  |  | 21.7 µM (inactive) | 54 µM (inactive) | 30 µM | 25.9 µM (inactive) | 40.6 µM (inactive) | > 100 µM (inactive) | 40.6 µM (inactive) | 20.2 µM (inactive) | 25.7 µM (inactive) | 41.8 µM (inactive) | 20.8 µM (inactive)
6 | N#Cc1nsnc1-c1nc(-c2nsnc2C#N)nc(-c2nsnc2C#N)n1 |  | > 100 µM (inactive) | > 100 µM (inactive) | > 100 µM (inactive) | > 100 µM (inactive) | > 100 µM (inactive) | > 100 µM (inactive) |  | > 100 µM (inactive) | 37.7 µM (inactive) | > 100 µM | > 100 µM (inactive) | > 100 µM (inactive) | > 100 µM (inactive) | > 100 µM (inactive) | 63.8 µM (inactive) | > 100 µM (inactive) |  | > 100 µM (inactive)
7 | CCC(C#N)NCc1ccc(CNC(C#N)CC)cc1 (centres undefined) | > 100 µM (inactive) | > 100 µM (inactive) | > 100 µM (inactive) | > 100 µM (inactive) | > 100 µM (inactive) | > 100 µM (inactive) | 95.7 µM (inactive) | > 100 µM (inactive) | > 100 µM (inactive) | > 100 µM (inactive) | > 100 µM | > 100 µM (inactive) | > 100 µM (inactive) | > 100 µM (inactive) | > 100 µM (inactive) | > 100 µM (inactive) | > 100 µM (inactive) | > 100 µM (inactive) | 
8 | Cc1ccc(C(=O)N/N=C(\N=N\c2ccccc2Cl)c2ccc(N(C)C)cc2)cc1 | 20.4 µM (inactive) | 30.5 µM (inactive) | > 100 µM (inactive) | > 100 µM (inactive) | 43.6 µM (inactive) | > 100 µM (inactive) | 29.4 µM (inactive) | > 100 µM (inactive) | 50.7 µM (inactive) | > 100 µM (inactive) | 30.6 µM | 27.5 µM (inactive) | 54.6 µM (inactive) | 2.61 µM (inactive) | > 100 µM (inactive) |  | > 100 µM (inactive) | 16.6 µM (inactive) | 
